Source: PubChem BioAssay AID977614 (Broad Institute, 2014)
Activity calls are given as the source filed them.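 Rule for the calls: active = parasite count per well reduced by over 3 SD from the mean, with host cell number above 80% of untreated; inactive = the rest.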

Tested on: L. donovani amastigotes in THP-1 macrophages, DAPI imaging, 72 h
Experiment: antileishmanial activity in infected macrophages – imaging, THP-1 host macrophages, single concentration (AID 977614);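 note: signal is the parasite per host cell ratio from DAPI stained kinetoplasts and nuclei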

Structure (SMILES)	AC50
O=C(NC[C@H]1[C@H](c2ccccc2)[C@H](CO)N1Cc1ccccn1)C1CCCC1	> 10 µM (inactive)
Cc1noc(C)c1S(=O)(=O)N(C)C[C@H]1OCc2cnnn2CCCC(=O)N([C@H](C)CO)C[C@@H]1C	> 10 µM (inactive)
O=C(C1CCC1)N1C[C@H]2[C@@H](c3ccccc31)[C@H](CO)N2C(=O)Nc1cccc(F)c1	> 10 µM (inactive)
CCC(=O)N1[C@H](CO)[C@@H](c2ccccc2)[C@@H]1CN(CC)C(=O)c1cccc(F)c1	> 10 µM (inactive)
C[C@@H]1CN([C@@H](C)CO)C(=O)CCCn2nncc2CO[C@H]1CN(C)C(=O)Nc1ccc2c(c1)OCCO2	> 10 µM (inactive)
CCCC(=O)N1C[C@@H]2[C@H](c3ccccc31)[C@@H](CO)N2C(=O)Nc1ccc(F)cc1	> 10 µM (inactive)
C/C=C/c1ccc([C@H]2[C@H](CO)N[C@H]2CN(CC(C)C)C(=O)c2ccccn2)cc1	> 10 µM (inactive)
C[C@H](CO)N1C[C@H](C)[C@@H](CN(C)C(=O)Nc2ccc(-c3cccs3)cc2)OCc2cnnn2CCCC1=O	> 10 µM (inactive)
C[C@H](CO)N1C[C@H](C)[C@H](CN(C)C(=O)Nc2ccc3c(c2)OCCO3)OCc2cnnn2CCCC1=O	> 10 µM (inactive)
CCC(=O)N1[C@H](CO)[C@H](c2ccc(C#CC3(O)CCCC3)cc2)[C@@H]1CNC(C)=O	> 10 µM (inactive)
C[C@@H]1CN([C@@H](C)CO)C(=O)CCCn2nncc2CO[C@@H]1CN(C)Cc1ccc(C(=O)Nc2ccccc2N)cc1	> 10 µM (inactive)
C/C=C/c1ccc([C@H]2[C@H](CO)N(C(C)=O)[C@H]2CNC(=O)c2ccccc2)cc1	> 10 µM (inactive)
Cc1noc(C)c1S(=O)(=O)N(C)C[C@@H]1OCc2cn(nn2)CCCC(=O)N([C@@H](C)CO)C[C@H]1C	> 10 µM (inactive)
C[C@H](CO)N1C[C@H](C)[C@@H](CN(C)C(=O)c2ccc(N3CCN(C)CC3)cc2)OCc2cn(nn2)CCCC1=O	> 10 µM (inactive)
O=S(=O)(c1ccccc1)N1[C@@H]2CNc3ccccc3[C@@H]2[C@@H]1CO	> 10 µM (inactive)
CC(=O)NC[C@H]1[C@@H](c2ccc(-c3cccnc3)cc2)[C@@H](CO)N1C(=O)CC1CC1	> 10 µM (inactive)
Cc1noc(C)c1NC(=O)N(C)C[C@H]1OCc2cnnn2CCCC(=O)N([C@@H](C)CO)C[C@@H]1C	> 10 µM (inactive)
O=C(c1cccc(F)c1)N1C[C@H]2[C@@H](c3ccccc31)[C@@H](CO)N2Cc1cocn1	> 10 µM (inactive)
COc1ccc(NC(=O)N(C)C[C@@H]2OCc3cnnn3CCCC(=O)N([C@H](C)CO)C[C@@H]2C)c(OC)c1	> 10 µM (inactive)
CC(C)NC(=O)N1[C@@H](CO)[C@@H]2c3ccccc3NC[C@@H]21	> 10 µM (inactive)
OC[C@@H]1[C@H]2c3ccccc3NC[C@H]2N1CC1CCOCC1	> 10 µM (inactive)
COCCN(C[C@H]1N[C@H](CO)[C@@H]1c1ccc(-c2cccc(C#N)c2)cc1)C(C)=O	> 10 µM (inactive)
C[C@H](CO)N1C[C@H](C)[C@@H](CN(C)C(=O)Nc2cccc(Oc3ccccn3)c2)OCc2cnnn2CCCC1=O	> 10 µM (inactive)
CC(=O)N1[C@H](CO)[C@@H](c2ccccc2)[C@@H]1CN(CC(C)C)C(=O)c1ccccn1	> 10 µM (inactive)
C[C@H]1CN([C@@H](C)CO)C(=O)CCCn2nncc2CO[C@H]1CN(C)C(=O)Nc1cccc(Oc2ccccn2)c1	> 10 µM (inactive)

Structure (SMILES)	AC50
CCCC#Cc1ccc([C@H]2[C@@H](CO)N[C@@H]2CN(C(C)=O)C2CCCC2)cc1	> 10 µM (inactive)
CN(C[C@H]1N[C@@H](CO)[C@H]1c1ccc(-c2ccc(F)cc2)cc1)C(=O)C1CCC1	> 10 µM (inactive)
C/C=C/c1ccc([C@H]2[C@@H](CN(C)C(=O)CC3CC3)N(C(=O)C3CC3)[C@H]2CO)cc1	> 10 µM (inactive)
C/C=C/c1ccc([C@@H]2[C@H](CO)N[C@H]2CN(CC(C)C)C(=O)c2ccccn2)cc1	> 10 µM (inactive)
COc1ccccc1NC(=O)N1C[C@@H]2[C@H](c3ccccc31)[C@H](CO)N2Cc1ccc2c(c1)OCO2	> 10 µM (inactive)
CCC(=O)N1C[C@H]2[C@@H](c3ccccc31)[C@H](CO)N2C(=O)CC1CC1	> 10 µM (inactive)
CC(C)NC(=O)N1[C@@H](CO)[C@H](c2ccccc2)[C@@H]1CN(C)C(=O)c1cccnc1	> 10 µM (inactive)
Cc1noc(C)c1NC(=O)N(C)C[C@@H]1OCc2cnnn2CCCC(=O)N([C@@H](C)CO)C[C@H]1C	> 10 µM (inactive)
C[C@@H]1CN([C@@H](C)CO)C(=O)CCCn2nncc2CO[C@@H]1CN(C)C(=O)c1ccc(N2CCN(C)CC2)cc1	> 10 µM (inactive)
O=C(Cc1ccccn1)N1[C@H](CO)[C@@H]2c3ccccc3NC[C@@H]21	> 10 µM (inactive)
C[C@@H]1CN([C@@H](C)CO)C(=O)CCCn2nncc2CO[C@H]1CN(C)Cc1cccc(C(F)(F)F)c1	> 10 µM (inactive)
C[C@@H]1CN([C@H](C)CO)C(=O)CCCn2nncc2CO[C@@H]1CN(C)C(=O)Nc1ccc2c(c1)OCCO2	> 10 µM (inactive)
CN(Cc1ccccc1F)C[C@H]1[C@@H](c2ccccc2)[C@@H](CO)N1S(C)(=O)=O	> 10 µM (inactive)
C[C@H]1CN([C@@H](C)CO)C(=O)CCCn2nncc2CO[C@H]1CN(C)C(=O)c1cc(-c2ccccc2)on1	> 10 µM (inactive)
C[C@H]1CN([C@@H](C)CO)C(=O)CCCn2nncc2CO[C@@H]1CN(C)Cc1ccccc1C(=O)O	> 10 µM (inactive)
COc1ccc(C(=O)N2C[C@H]3[C@@H](c4ccccc42)[C@@H](CO)N3C(=O)Cc2ccccn2)cc1	> 10 µM (inactive)
COCC(=O)N1[C@@H](CO)[C@@H]2c3ccccc3N(C(=O)c3cccnc3)C[C@@H]21	> 10 µM (inactive)
CN1C[C@@H]2[C@H](c3ccccc31)[C@@H](CO)N2C(=O)C1CCOCC1	> 10 µM (inactive)
CCN(C[C@H]1[C@H](c2ccccc2)[C@@H](CO)N1C(=O)COC)S(C)(=O)=O	> 10 µM (inactive)
C[C@@H]1CN([C@H](C)CO)C(=O)CCCn2cc(nn2)CO[C@@H]1CN(C)C(=O)Nc1cccc(C(F)(F)F)c1	> 10 µM (inactive)
COc1ccc(NC(=O)N(C)C[C@H]2OCc3cnnn3CCCC(=O)N([C@H](C)CO)C[C@H]2C)c(OC)c1	> 10 µM (inactive)
O=C(NC[C@H]1[C@@H](c2ccccc2)[C@@H](CO)N1C(=O)C1CCC1)NC1CCCC1	> 10 µM (inactive)
C[C@H](CO)N1C[C@H](C)[C@H](CN(C)Cc2ccc(C(=O)Nc3ccccc3N)cc2)OCc2cnnn2CCCC1=O	> 10 µM (inactive)
COc1ccc(CN(C)C[C@H]2OCc3cnnn3CCCC(=O)N([C@@H](C)CO)C[C@H]2C)cc1	> 10 µM (inactive)
CCN(C[C@H]1[C@@H](c2ccccc2)[C@H](CO)N1C(=O)COC)S(C)(=O)=O	> 10 µM (inactive)

Structure (SMILES)	AC50
C[C@@H]1CN([C@@H](C)CO)C(=O)CCCn2cc(nn2)CO[C@H]1CN(C)C(=O)NC1CCCCC1	> 10 µM (inactive)
C[C@@H]1CN([C@@H](C)CO)C(=O)CCCn2nncc2CO[C@@H]1CN(C)Cc1cccc2c1OCCCO2	> 10 µM (inactive)
C/C=C/c1ccc([C@H]2[C@H](CO)N(S(C)(=O)=O)[C@H]2CNCC2CCC2)cc1	> 10 µM (inactive)
COc1ccccc1S(=O)(=O)N(C)C[C@H]1OCc2cn(nn2)CCCC(=O)N([C@H](C)CO)C[C@@H]1C	> 10 µM (inactive)
C[C@H]1CN([C@@H](C)CO)C(=O)CCCn2cc(nn2)CO[C@H]1CN(C)C(=O)CCC(F)(F)F	> 10 µM (inactive)
C[C@@H]1CN([C@H](C)CO)C(=O)CCCn2nncc2CO[C@@H]1CN(C)Cc1ccc2c(c1)OCCN2C	> 10 µM (inactive)
O=C(CC(F)(F)F)N1C[C@@H]2[C@H](c3ccccc31)[C@H](CO)N2CC1CCOCC1	> 10 µM (inactive)
C[C@@H]1CN([C@H](C)CO)C(=O)CCCn2nncc2CO[C@H]1CN(C)C(=O)Nc1ccnc(N2CCOCC2)c1	> 10 µM (inactive)
C[C@H]1CN([C@@H](C)CO)C(=O)CCCn2nncc2CO[C@H]1CN(C)C(=O)Nc1ccc(-c2cccs2)cc1	> 10 µM (inactive)
COc1ccccc1C(=O)N1C[C@H]2[C@@H](c3ccccc31)[C@H](CO)N2C(=O)Cc1ccccc1	> 10 µM (inactive)
CCC(=O)N1[C@H](CO)[C@H](c2ccc(C#CC(C)(C)O)cc2)[C@@H]1CN(C)C(C)=O	> 10 µM (inactive)
C[C@H]1CN([C@@H](C)CO)C(=O)CCCn2nncc2CO[C@@H]1CN(C)C(=O)c1ccc(N2CCN(C)CC2)cc1	> 10 µM (inactive)
C[C@@H]1CN([C@H](C)CO)C(=O)CCCn2cc(nn2)CO[C@H]1CN(C)C(=O)CCC(F)(F)F	> 10 µM (inactive)
COCC(=O)N(C)C[C@@H]1[C@@H](c2ccccc2)[C@H](CO)N1C(=O)Cc1ccncc1	> 10 µM (inactive)
C[C@@H]1CN([C@H](C)CO)C(=O)CCCn2nncc2CO[C@@H]1CN(C)C(=O)CCC(F)(F)F	> 10 µM (inactive)
CC(=O)N1[C@H](CN(CC(C)C)C(=O)c2ccccn2)[C@@H](c2ccccc2)[C@@H]1CO	> 10 µM (inactive)
CCN(C[C@H]1[C@H](c2ccccc2)[C@H](CO)N1C(=O)COC)S(C)(=O)=O	> 10 µM (inactive)
C[C@H](CO)N1C[C@H](C)[C@H](CN(C)C(=O)Nc2cccc(C(F)(F)F)c2)OCc2cn(nn2)CCCC1=O	> 10 µM (inactive)
COCCN(C[C@H]1[C@H](c2ccccc2)[C@@H](CO)N1C(C)=O)C(=O)c1cccnc1	> 10 µM (inactive)
C[C@H](CO)N1C[C@H](C)[C@@H](CN(C)Cc2cccc(C(F)(F)F)c2)OCc2cnnn2CCCC1=O	> 10 µM (inactive)
O=C(c1ccc2c(c1)OCO2)N1C[C@@H]2[C@H](c3ccccc31)[C@H](CO)N2C(=O)CC1CC1	> 10 µM (inactive)
CC(=O)NC[C@@H]1[C@@H](c2ccc(C3=CCCC3)cc2)[C@H](CO)N1Cc1cccnc1	> 10 µM (inactive)
CC(C)NC(=O)N1[C@H](CNC(=O)CN(C)C)[C@H](c2ccccc2)[C@@H]1CO	> 10 µM (inactive)
CCC(=O)N1[C@@H](CO)[C@@H]2c3ccccc3N(C(=O)Nc3ccc(Cl)cc3)C[C@@H]21	> 10 µM (inactive)
CCC(=O)N1C[C@H]2[C@@H](c3ccccc31)[C@@H](CO)N2Cc1ccc(F)cc1	> 10 µM (inactive)
